Structures are written as SMILES.

This test deals with Cochliobolus miyabeanus. In words: activity against brown spot of rice caused by Cochliobolus miyabeanus, protective treatment. Particulars: individual active compound, rice leaves, 6 days after inoculation. In kind it is in vivo. The method, then: The active compounds, separately or jointly, were prepared as a stock solution comprising 0.25% by weight of active compound in acetone or DMSO. 1% by weight of the emulsifier Uniperol® EL (wetting agent having emulsifying and dispersing action based on ethoxylated alkylphenols) was added to this solution, and the mixture was appropriately diluted with water to the desired concentration.
Use example—activity against brown spot of rice caused by Cochliobolus miyabeanus, protective treatment Leaves of potted rice seedlings of the cultivar “Tai-Nong 67” were sprayed to runoff point with an aqueous suspension having the concentration of active compound stated below. The next day, the plants were inoculated with an aqueous spore suspension of Cochliobolus miyabeanus. The test plants were then placed in climatized chambers at 22-24° C. and 95-99% relative atmospheric humidity for six days. The extent of the development of the infection on the leaves was then determined visually.
Evaluation is carried out by determining the percentage of infected leaf areas. These percentages were converted into efficacies.
The efficacy (E) is calculated as follows using Abbot's formula: E=(1−α/β)·100 α corresponds to the fungicidal infection of the treated plants in % and β corresponds to the fungicidal infection of the untreated (control) plants in % An efficacy of 0 means that the infection level of the treated plants corresponds to that of the untreated control plants; an efficacy of 100 means that the treated plants are not infected.
The expected efficacies of mixtures of active compounds are determined using Colby's formula (Colby, R. S., Weeds, 15, 20-22, 1967) and compared with the observed efficacies.
Colby's formula: E=x+y−x·y/100 • E expected efficacy, expressed in % of the untreated control, when using the mixture of the active compounds A and B at the concentrations a and b • x efficacy, expressed in % of the untreated control, when using the active compound A at the concentration a • y efficacy, expressed in % of the untreated control, when using the active compound B at the concentration b

As for `CC1CCN(c2c(-c3c(F)cc(F)cc3F)c(Cl)nc3ncnn23)CC1` [I, 5-chloro-7-(4-methylpiperidin-1-yl)-6-(2,4,6-trifluorophenyl)-[1,2,4]tri-azolo[1,5-a]pyrimidine], the “Efficacy in % of the untreated control” value (6.25 ppm in the spray liquor) stood at 56%. With `CC1CCN(c2c(-c3c(F)cccc3Cl)c(Cl)nc3ncnn23)CC1` [A], for the setting “6.25 ppm in the spray liquor”, the “Efficacy in % of the untreated control” value was determined as 33%. `C[C@H](Nc1c(-c2c(F)cc(F)cc2F)c(Cl)nc2ncnn12)C(F)(F)F` [B]: where the note is “6.25 ppm in the spray liquor”, the “Efficacy in % of the untreated control” value is listed as 56%.

As for `CC(=O)O.CCCCCCCCCCCCNC(=N)N` [II (dodine), 1-dodecylguanidinium acetate], the “Efficacy in % of the untreated control” value is, setting by setting: (6.25 ppm in the spray liquor) 0%; (25 ppm in the spray liquor) 0%.

The record behind these values is patent US20070208039A1, “Fungicidal Mixtures for Controlling Rice Pathogens” (priority 2004, published 2007).
